# Marks after values point to notes of the source that are not given here.
# How the values were obtained:
# Zymoseptoria tritici = assay: Test B: wheat leaf blotch control on wheat seedlings; format: in vivo; details: 250 ppm test suspension (asterisk); wheat seedlings sprayed the day before inoculation; 100 = 100% disease control, 0 = none
# From the text: (§1) General protocol for preparing test suspensions for Tests A-C: the test compounds were first dissolved in acetone in an amount equal to 3% of the final volume and then suspended at the desired concentration (in ppm) in acetone and purified water (50/50 mix by volume) containing 250 ppm of the surfactant PEG400 (polyhydric alcohol esters). The resulting test suspensions were then used in Tests A-C.
# The test solution was sprayed to the point of run-off on wheat seedlings. The following day the seedlings were inoculated with a spore suspension of Zymoseptoria tritici (the causal agent of wheat leaf blotch) and incubated in a saturated atmosphere at 24° C. for 48 h, and then moved to a growth chamber at 20° C. for 17 days, after which time disease ratings were made.
# (§2) A rating of 100 indicates 100% disease control and a rating of 0 indicates no disease control (relative to the controls). A dash (-) indicates the compound was not tested.
# [1] = system: Puccinia recondita f. sp. tritici; assay: Test C: wheat leaf rust control on wheat seedlings; format: in vivo; details: wheat seedlings sprayed the day before inoculation, 100 = 100% disease control, 0 = none
# From the text: as §1
# The test solution was sprayed to the point of run-off on wheat seedlings. The following day the seedlings were inoculated with a spore suspension of Puccinia recondita f. sp. tritici (the causal agent of wheat leaf rust) and incubated in a saturated atmosphere at 20° C. for 24 h, and then moved to a growth chamber at 20° C. for 7 days, after which time disease ratings were made.
# as §2
# Phakopsora pachyrhizi = assay: Test A: Asian soybean rust control on soybean seedlings; format: in vivo; details: 10 ppm test suspension; soybean seedlings sprayed the day before inoculation; 100 = 100% disease control, 0 = none
# From the text: as §1
# The test solution was sprayed to the point of run-off on soybean seedlings. The following day the seedlings were inoculated with a spore suspension of Phakopsora pachyrhizi (the causal agent of Asian soybean rust) and incubated in a saturated atmosphere at 22° C. for 24 h, and then moved to a growth chamber at 22° C. for 8 days, after which time visual disease ratings were made.
# as §2
SMILES,Test B disease control rating (Zymoseptoria tritici),Test C disease control rating ([1]; 250 ppm test suspension (asterisk)),Test A disease control rating (Phakopsora pachyrhizi) [%],melting point [°C],Test C disease control rating ([1]; 10 ppm test suspension) [%],Test C disease control rating ([1]; 50 ppm test suspension)
Cl.O=S1(=NCc2ccc(-c3noc(C(F)(F)F)n3)cc2)CCNCC1 [Compound 24],18* %,99* %,99,219 to 223,,
O=S1(=Nc2ccc(-c3noc(C(F)(F)F)n3)cc2)c2ccccc2-c2ccccc21 [Compound 38],1* %,,0,230 to 234,0,
O=S1(=NCc2ccc(-c3noc(C(F)(F)F)n3)cc2)c2ccccc2-c2ccccc21 [Compound 41],86* %,,97,120 to 124,86,
CS(=O)(=NCc1ccc(-c2noc(C(F)(F)F)n2)cc1)c1ccccc1C#N (stereo not shown) [Compound 44],0* %,,98,,100,
CS(=O)(=NCc1ccc(-c2noc(C(F)(F)F)n2)cc1)c1cccc(C#N)c1 (stereo not shown) [Compound 45],0* %,,100,,100,
CCCS(C)(=O)=NCc1ccc(-c2noc(C(F)(F)F)n2)cc1 (stereo not shown) [Compound 46],1* %,,100,,100,
O=S1(=NCc2ccc(-c3noc(C(F)(F)F)n3)cc2)CCCC1 [Compound 51],52* %,,100,58 to 63,,100** %
CC(N=S(C)(C)=O)c1ccc(-c2noc(C(F)(F)F)n2)cc1 (stereo not shown) [Compound 52],25* %,,79,,,98** %

# Source: patent US20200345010A1, “FUNGICIDAL OXADIAZOLES” (FMC Corporation, priority 2019, published 2020)
